Patent US20070213291A1, “Therapeutically useful synthetic oligonucleotides” (priority 1999, published 2007)
Where “and” joins values, the source holds several entries; their conditions need not be identical. Equal values may be shown once.

Experiments:
Format in all cases: cell-based
[1] = tested on: Jurkat human leukemia T cells; assay: Inhibition of Jurkat human leukemia T cell proliferation (MTT reduction); details: 100 μg/ml sequence, 48 h, 2.5×10^5 cells/ml
Summary of the method: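 Read-out is MTT absorbance at 570 nm after 48 h. Sequences of 2 to 45 bases (A, C, G, T) tested at 100 μg/ml against untreated control, with 2.5×10^5 Jurkat cells/ml held at 37° C under 5% CO2.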

[2] = tested on: HL-60 human promyelocytic leukemia cells; assay: Inhibition of HL-60 cell proliferation (MTT); details: 100 μg/ml, 48 h
Procedure: (§1) Cells were seeded in 6 (1 ml/well), 24 (0.5 ml/well) or 96 (0.1 ml/well) well flat-bottom microplates and were maintained at 37° C. in a 5% CO2 atmosphere. Unless stated otherwise, 2.5×10^5 cells/ml were incubated with 0 μg/ml (control) and 100 μg/ml (treated) of 2 to 45 base sequences containing A, C, G and T for 48 h.
(§2) Cell proliferation was measured using dimethylthiazol-diphenyl-tetrazolium (MTT) reduction (Mosman et al. J. Immunol. Methods 65:55, 1983). MTT was measured at a wavelength of 570 nm using a multiplate spectrophotometer reader (ELX800, Bio-TEK Instruments Inc., Winooski, Vt.).
HL-60 promyelocytic leukemia cells are a p53 mutated human suspension tumor model. HL-60 cells were incubated with 6 base GT sequences (Table 6).

[3] = tested on: MCF-7 human breast cancer cells; assay: Inhibition of MCF-7 cell proliferation (MTT); details: 100 μg/ml, 48 h, 5×10^5 cells/ml
Procedure: as §1, §2
MCF-7 human breast cancer cells are a caspase 3 negative, estrogen-dependent human solid tumor model. MCF-7 cells (5×10^5 cells/ml) were incubated with 3 and 6 base GT sequences (Table 7).

[4] = tested on: PC-3 human prostate cancer cells; assay: Inhibition of PC-3 cell proliferation (MTT); details: 100 μg/ml, 48 h, 5×10^5 cells/ml
Procedure: as §1, §2
PC-3 prostate cancer cells are a p53 mutated, androgen-independent human solid tumor model. PC-3 cells (5×10^5 cells/ml) were incubated with 3 and 6 base GT sequences (Table 8).

[5] = tested on: LNCaP human prostate cancer cells; assay: Inhibition of LNCaP cell proliferation (MTT); details: 100 μg/ml, 48 h, 5×10^5 cells/ml
Procedure: as §1, §2
LNCaP prostate cancer cells are a TGF-beta 1 receptor negative, […], metastatic human solid tumor model. LNCaP cells (5×10^5 cells/ml) were incubated with 6 base GT sequences (Table 9).

[6] = tested on: THP-1 human acute monocytic leukemia cells; assay: Inhibition of THP-1 cell proliferation (MTT); details: 100 μg/ml, 48 h, 1.6×10^6 cells/ml
Procedure: as §1, §2
THP-1 acute monocytic leukemia cells are a p53 null human suspension tumor model. THP-1 cells (1.6×10^6 cells/ml) were incubated with 6 base GT sequences (Table 10).

[7] = tested on: A20 murine B leukemia cells; assay: Inhibition of A20 cell proliferation (MTT); details: 100 μg/ml, 48 h
Procedure: as §1, §2
A20 murine leukemia B cells are a suspension tumor model. A20 murine leukemia B cells were incubated with 6 base GT sequences (Table 19).

[8] = tested on: THP-1 human acute monocytic leukemia cells; assay: Cytokine production by THP-1 cells (ELISA); details: THP-1, 1×10^6 cells, 100 μg/ml, 48 h; for ↑ IL-12 (fold increase treated vs control cells): p70 complex and free p40
Summary of the method: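 Read-out is fold increase in supernatant cytokine versus control cells, measured by ELISA (IL-12 ELISA counts p70 complex plus free p40). Unless noted, sequences were tested at 100 μg/ml on 1×10^6 cells, incubated 48 h, 37° C, 5% CO2.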

[9] = tested on: human peripheral blood mononuclear cells; assay: Cytokine production by human PBMC (ELISA); details: PBMC of 7 healthy humans, 100 μg/ml, 48 h
Summary of the method: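 PBMC from 7 healthy donors, Ficoll-isolated; 1×10^6 cells incubated with 100 μg/ml oligonucleotide sequence for 48 h at 37 °C, 5% CO2. IL-1beta, IL-6, IL-10, IL-12 (p70 plus free p40) and TNF-alpha measured by ELISA in supernatant, expressed as fold increase over control cells.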

chimpanzee PBMCs = assay: Cytokine production by chimpanzee PBMC (ELISA); details: PBMC of 4 healthy chimpanzees, 100 μg/ml, 48 h
Procedure: (§3) Unless stated otherwise, 1×10^6 cells were incubated with 100 μg/ml of each of the sequences tested for 48 h at 37° C. in 5% CO2. Production of cytokines IL-6, IL-10, IL-12, IL-1beta and TNF-alpha was determined in pg/ml in 100 μl of culture supernatant using the appropriate commercial ELISA (BioSource, Camarillo Calif.). The IL-12 ELISA measures both IL-12 p70 complex and free p40 subunit. Results are expressed as the “fold” (×) increase in cytokine production by treated cells compared to control cells.
PBMCs were isolated from 4 healthy chimpanzees as in Example 35. Chimpanzee PBMCs were incubated with 6 base GT, AGT, CGT, AG, CG and GG sequences and production of the cytokines IL-10, IL-12 and TNF-alpha was determined (Table 41).

rhesus monkey PBMCs = assay: Cytokine production by rhesus monkey PBMC (ELISA); details: PBMC of 4 healthy rhesus monkeys, 100 μg/ml, 48 h
Procedure: as §3
PBMCs were isolated from 4 healthy rhesus monkeys as in Example 35. PBMCs were incubated with 6 base GT, AGT, CGT, AG, CG ands GG sequences and production of the cytokines IL-6, IL-12 and TNF-alpha was determined (Table 42).

Sequence | % INHIBITION of Jurkat human leukemia T cell proliferation [1] | % INHIBITION of HL-60 human promyelocytic leukemia cell proliferation [2] | % INHIBITION of MCF-7 human breast cancer cell proliferation [3] | % INHIBITION of PC-3 human prostate cancer cell proliferation [4] | % INHIBITION of LNCaP human prostate cancer cell proliferation [5] | % INHIBITION of THP-1 human acute monocytic leukemia cell proliferation [6] | % INHIBITION of A20 murine B leukemia cell proliferation [7] | ↑ IL-6 (fold increase treated vs control cells) [8] | ↑ IL-12 (fold increase treated vs control cells) [8] | IL-1 beta fold increase: mean +/− SD [9] | IL-6 fold increase: mean +/− SD [9] | IL-10 fold increase: mean +/− SD [9] | IL-12 fold increase: mean +/− SD [9] | IL-10 fold increase: mean +/− SD (chimpanzee PBMCs) | IL-12 fold increase: mean +/− SD (chimpanzee PBMCs) | TNF-alpha fold increase: mean +/− SD (chimpanzee PBMCs) | IL-10 fold increase: mean +/− SD (rhesus monkey PBMCs) | IL-12 fold increase: mean +/− SD (rhesus monkey PBMCs) | TNF-alpha fold increase: mean +/− SD (rhesus monkey PBMCs)
GGTGGG [SEQ ID NO:24] | 48% | 18% | 41% | 26% | 17% | 6% | 9% | 6.9x | 3.7x | 0.9 +/− 0.1 fold increase | 15.9 +/− 14.9 fold increase | 2.4 +/− 2.9 fold increase | 2.3 +/− 1.6 fold increase | 2.9 +/− 1.5 fold increase | 14.3 +/− 9.1 fold increase | 11.9 +/− 7.0 fold increase | 1.0 +/− 0.1 fold increase | 11.2 +/− 4.8 fold increase | 14.5 +/− 5.4 fold increase
TGTGTG [SEQ ID NO:9] | 37% and 36% | 7% | 6% | 16% | −9% | 0% | 22% | 4.0x | 1.8x | 1.2 +/− 0.4 fold increase | 8.3 +/− 12.8 fold increase | 1.0 +/− 0.1 fold increase | 2.7 +/− 2.6 fold increase | 2.3 +/− 1.3 fold increase | 13.5 +/− 8.9 fold increase | 11.3 +/− 6.9 fold increase | 1.1 +/− 0.2 fold increase | 10.6 +/− 4.2 fold increase | 14.3 +/− 6.3 fold increase
TTTGTT [SEQ ID NO:23] | 31% | 13% | 7% | 14% | 14% | 8% | 5% | 4.9x | 3.5x | 1.0 +/− 0.1 fold increase | 11.8 +/− 9.0 fold increase | 1.0 +/− 0.1 fold increase | 1.1 +/− 0.3 fold increase | 1.5 +/− 0.6 fold increase | 12.9 +/− 8.2 fold increase | 9.0 +/− 5.5 fold increase | 1.0 +/− 0.1 fold increase | 6.7 +/− 3.6 fold increase | 4.4 +/− 3.8 fold increase
